Source: US6746850B2 (priority 2000, dated 2004)
Values joined by “and” are separate entries in the source; they are usually repeats but may differ in a detail not shown here. Equal values may be shown once.

How the values were obtained:
BChE [1] = molecular target: T1, BChE (Cavia porcellus, UniProt H0V4F8); assay type: biochemical, Hartley guinea pig
AChE [2] = molecular target: T2, AChE (Cavia porcellus, UniProt D3YE96); assay type: biochemical, Hartley guinea pig
BChE [3] = molecular target: T1, BChE; assay type: biochemical, Hartley guinea pig; remark: listed apart in the source
BChE [4] = assay type: biochemical, Rhesus monkey
BChE [5] = molecular target: BChE (Homo sapiens, UniProt P06276); assay type: biochemical
BChE [6] = molecular target: BChE (Rattus norvegicus, UniProt Q9JKC1); assay type: biochemical, Sprague Dawley rat
AChE [7] = molecular target: AChE (Rattus norvegicus, UniProt P37136); assay type: biochemical, Sprague Dawley rat
AChE [8] = molecular target: AChE (Homo sapiens, UniProt P22303); assay type: biochemical
AChE [9] = molecular target: AChE (Macaca mulatta, UniProt A0A5F7ZPE9); assay type: biochemical, Rhesus monkey
AChE [10] = molecular target: T2, AChE; settings: guinea pig, in vivo
AChE [11] = molecular target: T2, AChE; assay type: biochemical, Hartley guinea pig; remark: listed apart in the source

Compound	BChE Coefficient (sensitivity coefficient) Value (BChE [4])	BChE Coefficient (sensitivity coefficient) Value (BChE [5])	BChE Coefficient (sensitivity coefficient) Value (BChE [6])	AChE Coefficient (sensitivity coefficient) Value (AChE [7])	AChE Coefficient (sensitivity coefficient) Value (AChE [8])	AChE Coefficient (sensitivity coefficient) Value (AChE [9])	other results
C/C=C1\[C@H]2C=C(C)C[C@]1(N)c1ccc(=O)[nH]c1C2 (racemic) [rac Hup-A, Racemic huperzine-A]	–	–	–	–	–	–	BChE Average (BChE [1]): 0.907 U/mL and 0.930 U/mL and 0.913 U/mL and 0.929 U/mL and 0.912 U/mL and 0.892 U/mL
C[n+]1ccccc1C=NO [2-PAM]	–	–	–	–	–	–	effect on AChE (AChE [2]): inhibited; effect on BChE (BChE [3]): relatively unaffected
CCC(=O)SCC[N+](C)(C)C.[I-] [PTC, propionylthiocholine iodide]	514 mAbs/min/[blood]	1417 mAbs/min/[blood]	134 mAbs/min/[blood]	158 mAbs/min/[blood]	1071 mAbs/min/[blood]	844 mAbs/min/[blood]	–
CN(C)C(=O)Oc1ccc[n+](C)c1 [PB, pyridostigmine bromide]	–	–	–	–	–	–	peak inhibition time (AChE [10]): about 30 minutes
CCCC(=O)SCC[N+](C)(C)C.[I-] [BTC, butyrylthiocholine iodide]	661 mAbs/min/[blood]	1466 mAbs/min/[blood]	62 mAbs/min/[blood]	0 mAbs/min/[blood]	82 mAbs/min/[blood]	0 mAbs/min/[blood]	AChE Coefficient (sensitivity coefficient) Value (AChE [11]): 0 mAbs/min/[blood]
